What was measured:
ULK1 = target: T1, ULK1 (Homo sapiens, UniProt O75385); assay: Inhibition of ULK1 protein activity (ADP-Glo method); assay type: biochemical; conditions: ULK1 enzyme, ATP and MBP substrate, 60 min room temperature
T1 construct: purchased Promega V3521
T1 sequence (O75385 1-649 limits assumed): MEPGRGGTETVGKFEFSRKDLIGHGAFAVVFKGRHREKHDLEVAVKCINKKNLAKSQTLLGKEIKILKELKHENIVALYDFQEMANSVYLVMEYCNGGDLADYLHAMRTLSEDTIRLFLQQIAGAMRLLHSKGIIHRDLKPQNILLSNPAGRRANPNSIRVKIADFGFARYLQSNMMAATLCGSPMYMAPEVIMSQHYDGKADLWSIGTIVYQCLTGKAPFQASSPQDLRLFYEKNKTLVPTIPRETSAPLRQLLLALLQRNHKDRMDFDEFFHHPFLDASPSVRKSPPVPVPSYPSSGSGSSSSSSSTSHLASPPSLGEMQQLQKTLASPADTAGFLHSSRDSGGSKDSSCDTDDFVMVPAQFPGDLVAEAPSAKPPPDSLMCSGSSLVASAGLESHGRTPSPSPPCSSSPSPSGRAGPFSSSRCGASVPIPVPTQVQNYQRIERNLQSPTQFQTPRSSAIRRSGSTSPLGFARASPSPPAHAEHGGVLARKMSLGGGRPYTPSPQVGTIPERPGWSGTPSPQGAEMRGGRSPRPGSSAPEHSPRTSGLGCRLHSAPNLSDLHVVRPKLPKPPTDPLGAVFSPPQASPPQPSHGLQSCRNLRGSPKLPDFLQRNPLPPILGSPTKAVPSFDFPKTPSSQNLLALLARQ
Procedure: In this experiment, the inhibitory effect of a compound on the phosphorylation function of ULK1 was detected by ADP-Glo method. The inhibitory effect of the compound of the present disclosure on the ULK1 target was evaluated based on IC50.
Compound formulation: Using an ECHO (Beckman, ECHO650), the compound was serially diluted 3-fold in DMSO in a 384-well plate (PE, 6007290). A total of 10 concentration points were set, with the maximum concentration of the compound being 10 μM, and 50 nL per well. Positive control wells and negative control wells were added with 50 nL DMSO, respectively.
Reaction process: A 32 nM of ULK1 (Promega, V3521) solution was formulated, and 2.5 μL/well was transferred to the compound test wells and the negative control wells (NC). 2.5 μL/well of 1× Assay buffer was added to the positive control wells (PC). A mixed solution of 100 μM of ATP and 1.86 μM of MBP was formulated, and 2.5 μL/well was transferred to the reaction plate. After centrifugation, the reaction was initiated and incubated at room temperature for 60 min. After the reaction was completed, 5 μL/well of ADP-Glo Reagent (Promega, V9102) was added to the reaction plate. After centrifugation, the reaction was incubated at room temperature for 40 minutes. Finally, 10 μL/well of Kinase Detection Buffer was added, followed by centrifugation and incubation at room temperature for 30 min. The chemiluminescence value was read using Envision (PE, Envision2105).
Assay buffer: a reaction buffer; and Kinase Detection buffer: a detection buffer, both were taken from the ADP-Glodetection kit, purchased from Promega, model V9102. 3. Data analysis
The inhibition ratio of a compound on ULK1 activity was calculated using the following formula:
Inhibition ratio=(sample signal value−negative control signal value)/(positive control signal value−negative control signal value)×100%. The dose-effect curve was fitted using the log(inhibitor) vs. response -Variable slope of the analysis software GraphPad Prism 8, thereby affording the IC50 value of each compound for enzyme activity.

[1] = tested on: ATG13 phosphorylation level in MIA PaCa-2 cells; assay: Inhibition of ATG13 phosphorylation level in MIA PaCa-2 cells (pATG13 ELISA); assay type: cell-based; conditions: Homo sapiens, Torin1 100 nM, 24 h incubation, Phospho-Atg13 (ser355)
Procedure: The inhibitory effect of the compound of the present disclosure on ULK1 was evaluated by testing the inhibitory effect of the compound of the present disclosure on ATG13 phosphorylation level in MIA PaCa-2 cells.
MIA PaCa-2 cells (ATCC, CRM-CRL-1420) were cultured in a complete medium, namely, a DMEM medium (Gibco, 11965-092) containing 10% fetal bovine serum (Corning, 35-081-CV), 2.5% horse serum (Gibco, 16050-122) and 1% double antibody (Gibco, 15140-122). The experiments were performed according to the requirements of the kit (Cell Signaling Technology, 17208C).
Cell plating: MIA PaCa-2 at 80% growth confluence were digested, diluted with the complete medium, and added to a 96-well cell culture plate (Costar, 3596) at 20,000 cells per well, with a volume of 90 μL.
Compound incubation: 5 μL of Torin1 and 5 μL of a serially diluted compound were added to each well so that the highest concentration of the compound in the reaction system was 10 μM. 5-fold serial dilution with 8 concentrations was performed, and the final concentration of Torin1 was 100 nM. The DMSO content in the system was 0.1%. The reaction plate was placed in an incubator at 37° C. in 5% CO2, and was incubated for 24 h. 10 μL of Torin1 was added to the negative control wells (NC) to a final concentration of 100 nM, with a DMSO content of 0.1%.
Reaction detection: After the incubation was completed, the cell plate was washed with a pre-cooled DPBS (Corning, 21-031-CVC) to wash away the compound and medium. 50 μL of pre-cooled cell lysis solution was added to each well, incubated on ice for 10 min. The cell plate was centrifuged, and the supernatant was transferred to an ELISA reaction plate. Simultaneously, 50 μL of Phospho-Atg13 (ser355) rabbit detection antibody was added, followed by incubation at room temperature under shaking for 60 min. After the incubation was completed, the reaction plate was washed with a washing solution for 4 times. 100 μL of TMB substrate was added for color development reaction, followed by incubation under shaded conditions with shaking for 15 min. Finally, 100 μL of stop solution was added to each well. The reaction was terminated by shaking for 10 s, and the absorbance value at 450 nm and 560 nm were collected within 10 min using Envision (Perkin Elmer, EnVision 2105).
The inhibition ratio was calculated by subtracting the absorbance value at […] from the absorbance value at 450 nm for each well. The inhibition ratio formula is as follows: inhibition ratio=(sample signal value−negative control signal value)/(positive control signal value -negative control signal value)×100%.
The dose-effect curve was fitted using the log (inhibitor) vs. response -Variable slope of Graphpad Prism8, thereby affording the IC50 value of each compound for inhibiting ATG13 phosphorylation level.

Row | SMILES | IC50 (ULK1) | IC50 [1]
1 | CN1CCC(COc2ccc(Nc3ncc(C(F)(F)F)c(OCCCN4CCCCC4=O)n3)c(C3CC3)c2)CC1 [Example 34] | 100 to 1000 nM | –
2 | CN1CCN(c2ccc(Nc3ncc(C(F)(F)F)c(CCN4CCCCC4=O)n3)c(C3CC3)c2)CC1 [Example 28] | 100 to 1000 nM | –
3 | CN1CCN(c2ccc(Nc3ncc(C(F)(F)F)c(N4CC5(CCN(C)C5)C4)n3)c(C3CC3)c2)CC1 [Example 25] | < 100 nM | 100 to 1000 nM
4 | CN1CCN(c2ccc(Nc3ncc(C(F)(F)F)c(N4CCCN(C(=O)C5CCC5)CC4)n3)c(C3CC3)c2)CC1 [Example 9] | 100 to 1000 nM | –
5 | CN1CCN(c2ccc(Nc3ncc(C(F)(F)F)c(N4CCN(C5CCCNC5)C(=O)C4)n3)c(C3CC3)c2)CC1 (stereo not shown) [Example 45] | 100 to 1000 nM | –
6 | CN1CC[C@@H](Oc2ccc(Nc3ncc(C(F)(F)F)c(OCCCN4CCCCC4=O)n3)c(C3CC3)c2)C1 [Example 46] | < 100 nM | –
7 | CN1CCN(c2ccc(Nc3ncc(C(F)(F)F)c(OC4CCN(C(=O)C5CCC5)CC4)n3)c(C3CC3)c2)CC1 [Example 18] | 100 to 1000 nM | –
8 | CN1CCN(c2ccc(Nc3ncc(C(F)(F)F)c(N4CCC5(CN(C)C5)C4)n3)c(C3CC3)c2)CC1 [Example 38] | < 100 nM | –
9 | CN1CCN(c2nc(Nc3cccc(NC(=O)N4CCCC4)c3)ncc2C(F)(F)F)CC1=O [Example 22] | > 1000 nM | –
10 | CN1CCN(c2ccc(Nc3ncc(C(F)(F)F)c(N4C5CCC4C(=O)N(C)C5)n3)c(C3CC3)c2)CC1 (stereo not shown) [Example 39] | < 100 nM | –
11 | CN1CCN(c2nc(Nc3cccc(CN4CCOCC4)c3)ncc2C(F)(F)F)CC1=O [Example 16] | > 1000 nM | –
12 | CN1CCN(c2ccc(Nc3ncc(C(F)(F)F)c(NC(=O)C4CCC4)n3)c(C3CC3)c2)CC1 [Example 7] | 100 to 1000 nM | –
13 | CN1CCC(n2cc(-c3nc(Nc4ccc(N5CCN(C)CC5)cc4C4CC4)ncc3C(F)(F)F)cn2)CC1 [Example 33] | < 100 nM | –
14 | CN1CCN(c2ccc(Nc3ncc(C(F)(F)F)c(N4CCC5(CC4)CN(C)C5)n3)c(C3CC3)c2)CC1 [Example 36] | > 1000 nM | –
15 | Cc1ccn(C2CN(c3nc(Nc4ccc(N5CCN(C)CC5)cc4C4CC4)ncc3C(F)(F)F)C2)n1 [Example 2] | 100 to 1000 nM | –
16 | CN1CCN(c2ccc(Nc3ncc(C(F)(F)F)c(NC4CCC(N5CCCC5=O)CC4)n3)c(C3CC3)c2)CC1 (stereo not shown) [Example 52] | < 100 nM | –
17 | CN1CCN(c2ccc(Nc3ncc(C(F)(F)F)c(N4CCC(N5CCCCC5=O)CC4)n3)c(C3CC3)c2)CC1 [Example 8] | > 1000 nM | –
18 | CN1CCN(c2ccc(Nc3ncc(C(F)(F)F)c(N4CCN(C(=O)C5CCC5)CC4)n3)c(C3CC3)c2)CC1 [Example 3] | 100 to 1000 nM | –

Row | SMILES | IC50 (ULK1) | IC50 [1]
19 | Cc1ccnn1C1CCN(c2nc(Nc3ccc(N4CCN(C)CC4)cc3C3CC3)ncc2C(F)(F)F)CC1 [Example 13] | 100 to 1000 nM | –
20 | CN1CCN(c2ccc(Nc3ncc(C(F)(F)F)c(N4CCC(CN5CCCCC5=O)C4)n3)c(C3CC3)c2)CC1 (stereo not shown) [Example 12] | 100 to 1000 nM | –
21 | CN1CCN(c2ccc(Nc3ncc(C(F)(F)F)c(N4CC5(CCN(C)CC5)C4)n3)c(C3CC3)c2)CC1 [Example 48] | < 100 nM | –
22 | CN1CCC2(CCN(c3nc(Nc4ccc(N5CCOCC5)cc4)ncc3C(F)(F)F)CC2)C1 [Example 23] | < 100 nM | –
23 | Cc1ccn(C2CCN(c3nc(Nc4ccc(N5CCN(C)CC5)cc4C4CC4)ncc3C(F)(F)F)C2)n1 (stereo not shown) [Example 41] | < 100 nM | –
24 | CN1CCN(c2ccc(Nc3ncc(C(F)(F)F)c(N4CCC(N5CCCC5=O)CC4)n3)c(C3CC3)c2)CC1 [Example 6] | > 1000 nM | –
25 | CN1CCN(c2ccc(Nc3ncc(C(F)(F)F)c(N4CCC(NC(=O)C5CCC5)CC4)n3)c(C3CC3)c2)CC1 [Example 4] | 100 to 1000 nM | –
26 | CN1CCN(c2ccc(Nc3ncc(C(F)(F)F)c(OCCCC(=O)N4CCOCC4)n3)c(C3CC3)c2)CC1 [Example 47] | < 100 nM | –
27 | CN1CCN(c2nc(Nc3cccc(Nc4ccc(N)cc4)c3)ncc2C(F)(F)F)CC1=O [Example 21] | 100 to 1000 nM | –
28 | CN1CCN(c2ccc(Nc3ncc(C(F)(F)F)c(N4CCC5(CCNC5=O)CC4)n3)c(C3CC3)c2)CC1 [Example 35] | < 100 nM | –
29 | CN1CCN(c2ccc(Nc3ncc(C(F)(F)F)c(NC4CCN(C)C(=O)C4)n3)c(C3CC3)c2)CC1 (stereo not shown) [Example 10] | 100 to 1000 nM | –
30 | CC(=O)Nc1ccc(Nc2cccc(Nc3ncc(C(F)(F)F)c(N4CCN(C)C(=O)C4)n3)c2)cc1 [Example 43] | > 1000 nM | –
31 | CN1CCN(c2ccc(Nc3ncc(C(F)(F)F)c(NCCCc4ccccc4C#N)n3)c(C3CC3)c2)CC1 [Example 44] | < 100 nM | –
32 | CN1CCN(c2ccc(Nc3ncc(C(F)(F)F)c(CCNC(=O)C4CCC4)n3)c(C3CC3)c2)CC1 [Example 27] | 100 to 1000 nM | –
33 | CN1CCN(c2ccc(Nc3ncc(C(F)(F)F)c(N4CC5(CCCN(C)C5)C4)n3)c(C3CC3)c2)CC1 [Example 50] | 100 to 1000 nM | –
34 | CN1CCN(c2ccc(Nc3ncc(C(F)(F)F)c(COCCN4CCCCC4=O)n3)c(C3CC3)c2)CC1 [Example 42] | > 1000 nM | –
35 | CN1CCN(c2ccc(Nc3ncc(C(F)(F)F)c(OC4CCN(C)C(=O)C4)n3)c(C3CC3)c2)CC1 (stereo not shown) [Example 17] | < 100 nM | –
36 | CN1CCN(c2ccc(Nc3ncc(C(F)(F)F)c(N[C@H]4CCN(C)C4=O)n3)c(C3CC3)c2)CC1 [Example 11] | 100 to 1000 nM | –

From patent US20260274819A1, “ULK1 INHIBITOR, PREPARATION METHOD THEREFOR AND USE THEREOF” (DOVETREE MEDICINES UNUS, INC., priority 2023, published 2026)
